From patent publication US11298358B2, “Combination therapy using ascochlorin derivative” (priority 2017, dated 2022)
Read-outs that look alike come from different tables or passages of the source. One block for each compound: values may come before it.

Tests used:
[1] = Solubility in pH4.0 and pH7.4 phosphate buffer solution; settings: 2 hr incubation, 25° C.
Experimental: 1) Preparation of Stock Solutions
The stock solutions of test compounds and positive control compound were prepared in DMSO at the concentration of 30 mM. Diclofenac was used as positive control in the assay.
2) Procedures for Solubility Determination
The stock solution of each compound (10 μL) was placed in order into their proper 96-well rack, followed by adding 990 μL of PBS at pH 4.0 and pH 7.4 into each vial of the cap-less Solubility Sample plate. This study was performed in duplicate. One stir stick was added to each vial and then vials were sealed using a molded PTDE/SIL 96-Well Plate Cover. The Solubility Sample plate was transferred to the Thermomixer Comfort plate shaker and incubated at 25° C. for 2 hours with shaking at 1,100 rpm. After 2 hours incubation, stir sticks were removed using a big magnet and all samples from the Solubility Sample plate were transferred into the filter plate. All the samples were filtered by using the vacuum manifold. The filtered samples were diluted with methanol.
3) Samples Analyzed by LC-MS/MS:
The LC system comprised a Shimadzu liquid chromatograph separation system equipped with degasser DGU-20A3, solvent delivery unit LC-20AD, system controller CBM-20A, column oven CTO-10ASVP and CTC Analytics HTC PAL System. Mass spectrometric analysis was performed using an API 4000 instrument from AB Inc (Canada) with an ESI interface.

AMPK in HepG2 cell = settings: HepG2 cells, reported in the literature; cited from earlier work
[2] = Stability against human liver microsomes; assay type: in vitro ADME; settings: 2 μM compound
Experimental: (§1) Determination of Stability Against Mouse and Human Microsomes
(§2) Pooled human liver microsomes (Cat. 452161; Lot. 23418) were purchased from Corning and pooled male mouse liver microsomes (Cat. M1000; Lot. 1210302) were purchased from Xenotech. Microsomes were stored at −80° C. prior to use. 40 μL of ultra-pure H2O was used instead of NADPH solution in the negative control. The negative control was used to exclude the misleading factor that was resulted from instability of chemical itself. Samples with NADPH were prepared in duplicate. Negative controls were prepared in singlet.
(§3) The reaction was started with the addition of 4 μL of 200 μM compound solution to each master solution to get the final concentration of 2 μM. Verapamil was used as positive control in the assay. Aliquots of 50 μL were taken from the reaction solution at 0, 15, 30, 45 and 60 min. The reaction was stopped by addition of 4 volumes of cold acetonitrile with IS (200 nM imipramine, […] labetalol and 2 μM ketoprofen). Samples were centrifuged at 3,220 g for 40 minutes. Aliquot of 90 μL of the supernatant was mixed with 90 μL of ultra-pure H2O and then was used for LC-MS/MS analysis. Results are shown in Table 3 by indicating remaining % of the test compound after 60 minutes incubation with liver microsomes from human and mouse in the presence of NADPH.

[3] = Stability against mouse liver microsomes; assay type: in vitro ADME; settings: 2 μM compound
Experimental: as §1, §2, §3

CT26 tumor cells = experiment: Efficacy study in CT26 syngeneic mouse model; assay type: in vivo; settings: for antitumor activity (in words): Cmpd 19 alone
Experimental: An efficacy study was conducted by using Compound 19 (Cmpd 19) with CT26 syngeneic mouse model. Female BALB/c mice (Vital River, Beijing, China) of 7 to 9 weeks old with body weight between 19 and 21 g were used. Each mouse was inoculated subcutaneously on the right flank with CT26 tumor cells (2×10^5) in 0.1 mL of PBS for tumor development. On Day 5 after tumor inoculation, mice were randomized into groups. Each group consisted of 10 tumor-bearing mice. The treatment with Cmpd 19 was then started on Day 5.
As an anti PD-1 antibody, anti-mouse PD-1 antibody (CD279, Clone: RMP1-14, Catalog #: BE0146 from Bio X Cell) was used.
The measurement of tumor size was conducted three times weekly with calipers, and the tumor volume (mm^3) is estimated using the formula: TV=(a×b^2)/2, where “a” and “b” are long and short diameters of a tumor, respectively. The TVs were used for calculation of the tumor growth inhibition (TGI, an indicator of antitumor effectiveness), using formula: TGI=(1−T/C)×100%, where “T” and “C” are the mean relative volumes (% tumor growth) of the tumors in the treated and the control groups. Data were analyzed using GraphPad Software and represented as the mean value±SD in FIG. 3 in which error bars are shown. The p values were assessed using One-Way ANOVA Dunnett test and vehicle control (G1) as control group. A case with p<0.05 was considered as statistically significant.

A549 = experiment: Anti-proliferative activity, CellTiterGlo assay, A549; assay type: cell-based; settings: Homo sapiens; A549, 96 hrs incubation; read-out: Antiproliferative activities (IC50) A549
Experimental: (§4) The anti-proliferative activities of the compounds against 6 human cancer cell lines were determined by CellTiterGlo assay kit. All cells were obtained from ATCC and cultured as recommended by the vendor. Cells were assayed in exponential growth phase. Sample solution was prepared by 3-fold serial dilution from 30 mM stock for 10 doses in DMSO. Antiproliferative activities were measured by CellTiterGlo assay kit according to the protocol after cells were incubated for 96 hrs in a 37° C., 5% CO2 incubator.
(§5) On the 4th day of incubation, i) 15 μl reagent (CelltiterGlo assay kit) was added per well and plate was shaken (avoiding light) for 2 mins on a plate shaker, ii) the plate was kept (avoiding light) in room temperature for 30 min, and iii) the luminescence value was recorded by Multiplate reader.

HT29 = experiment: Anti-proliferative activity, CellTiterGlo assay, HT29; assay type: cell-based; settings: Homo sapiens, HT-29; HT29, 96 hrs incubation; read-out: Antiproliferative activities (IC50) HT29
Experimental: as §4, §5

BxPC-3 = experiment: Anti-proliferative activity, CellTiterGlo assay, BxPC-3; assay type: cell-based; settings: Homo sapiens; BxPC-3, 96 hrs incubation; read-out: Antiproliferative activities (IC50) BxPC-3
Experimental: as §4, §5

LNCaP = experiment: Anti-proliferative activity, CellTiterGlo assay, LNCaP; assay type: cell-based; settings: Homo sapiens, 96 hrs incubation, read-out: Antiproliferative activities (IC50) LNCaP
Experimental: as §4, §5

MDA-MB-231 = experiment: Anti-proliferative activity, CellTiterGlo assay, MDA-MB-231; assay type: cell-based; settings: Homo sapiens; MDA-MB-231, 96 hrs incubation; read-out: Antiproliferative activities (IC50) MDA-MB-231
Experimental: as §4, §5

U87-MG = experiment: Anti-proliferative activity, CellTiterGlo assay, U87-MG; assay type: cell-based; settings: Homo sapiens, U-87 MG, 96 hrs incubation, read-out: Antiproliferative activities (IC50) U87-MG
Experimental: as §4, §5

[4] = G3: Cmpd 19 50 mg/kg p.o. once a day x 18
[5] = G4: Cmpd 19 25 mg/kg p.o. once a day x 18

- Solubility pH 4.0 PBS ([1]; pH 4.0 phosphate buffer solution): converted to MAC
- Solubility pH 7.4 PBS ([1]; pH 7.4 phosphate buffer solution): 0.02 μM
Compound: COc1c(Cl)c(C)c(C=NCC(N)=O)c(O)c1C/C=C(C)/C=C/[C@@]1(C)[C@H](C)CCC(=O)[C@@H]1C [compound #13 in WO2004/074236]

- Liver microsome stability remaining % after 60 min incubation with NADPH, human LM [2]: 99%
- Liver microsome stability remaining % after 60 min incubation with NADPH, mouse LM [3]: 88%
Compound: CO/N=C/c1c(C)c(Cl)c(OC)c(C/C=C(C)/C=C/[C@@]2(C)[C@H](C)CC[C@](C)(O)[C@@H]2C)c1O [Compound 14, 4-chloro-2-[(2E,4E)-5-[(1R,2R,3S,6R)-3-hydroxy-1,2,3,6-tetramethylcyclohexyl]-3-methylpenta-2,4-dien-1-yl]-3-methoxy-6-[(1E)-(methoxyimino)methyl]-5-methylphenol]

- Liver microsome stability remaining % after 60 min incubation with NADPH, human LM [2]: 71%
- Liver microsome stability remaining % after 60 min incubation with NADPH, mouse LM [3]: 71%
- IC50 (A549): 6.5 µM
- IC50 (HT29): 10 µM
- IC50 (BxPC-3): 12.8 µM
- IC50 (LNCaP): 7.2 µM
- IC50 (MDA-MB-231): 6.8 µM
- IC50 (U87-MG): 13.1 µM
Compound: COc1c(Cl)c(C)c(/C=N/O)c(O)c1C/C=C(C)/C=C/[C@@]1(C)[C@H](C)CC[C@](C)(O)[C@@H]1C [Compound 7, 4-chloro-2-[(2E,4E)-5-[(1R,2R,3S,6R)-3-hydroxy-1,2,3,6-tetramethylcyclohexyl]-3-methylpenta-2,4-dien-1-yl]-6-[(1E)-(hydroxyimino)methyl]-3-methoxy-5-methylphenol]

The next lines start with the compound.

Compound: COc1c(Cl)c(C)c(C=O)c(O)c1C/C=C(C)/C=C/[C@@]1(C)[C@H](C)CCC(=O)[C@@H]1C [MAC, 4-O-Methy-ascochlorin]
- Solubility pH 4.0 PBS (pH 4): <0.08 μM
- Solubility pH 7.4 PBS (pH 7.4): 0.07 μM
- AMPK activation in HepG2 cell (AMPK in HepG2 cell): ability for activating AMPK

Compound: CN(C)C(=N)N=C(N)N [Metformin]
- AMPK activation in HepG2 cell (AMPK in HepG2 cell): only at surprisingly high concentration of mM level

Compound: CO/N=C/c1c(C)c(Cl)c(OC)c(C/C=C(C)/C=C/[C@@]2(C)[C@H](C)CC/C(=N\OCC(=O)O)[C@@H]2C)c1O [Compound 19, 2-([[(1E,2R,3R,4R)-3-[(1E,3E)-5-[3-chloro-6-hydroxy-2-methoxy-5-[(1E)-(methoxyimino)methyl]-4-methylphenyl]-3-methylpenta-1,3-dien-1-yl]-2,3,4-trimethylcyclohexylidene]amino]oxy)acetic acid]
- antitumor activity (in words) (CT26 tumor cells; 25 mg/kg p.o.): minor or no antitumor activity
- antitumor activity (in words) (CT26 tumor cells; 50 mg/kg p.o.): minor or no antitumor activity
- TGI (%) (CT26 tumor cells; [4]): −1.4%
- Tumor volume (mm^3, on Day 23) (CT26 tumor cells; [4]): 6,483 ± 310 mm^3
- TGI (%) (CT26 tumor cells; [5]): 6.5%
- Tumor volume (mm^3, on Day 23) (CT26 tumor cells; [5]): 6,056 ± 689 mm^3
